From patent US12329851B2 (MedinCell S.A., priority 2021, dated 2025)

Assay: Population pharmacokinetics (PopPK) modeling
Set-up: species or system human
Conditions: after sc Risperidone formulation
Source text: The general procedures that were followed for PopPK model development are outlined below: • 1. Exploratory data analysis • 2. Base structural model development • 3. Evaluation of covariate effects • 4. Model refinement • 5. Model evaluation
This was a one compartment model, with a first order and transit compartment absorption routes and a first-order elimination.
Predicted risperidone concentration from the parent model was used as input into the metabolite central compartment.
Finally, model estimated parent and metabolite levels were used to calculate TAM exposure, which was used for PK evaluation and simulations as well as for exposure-response evaluation of safety and efficacy.

In the case of Cc1nc2n(c(=O)c1CCN1CCC(c3noc4cc(F)ccc34)CC1)CCCC2O (stereo not shown) [9-OH-risperidone, 9-hydroxy-risperidone], the “final PopPK model estimate for clearance (CL)” value is reported as 5.78 L/h.
